ChEMBL document CHEMBL4673266, “Sulfonamide antibiotics inhibit RNAi by binding to human Argonaute protein 2 PAZ” (Bioorg Med Chem Lett, 2020)
pKd: −log10 of the molar value. Active and inactive are the calls of the source. The rule behind the calls is not given here.

Tests used:
[1] = tested on: HeLa; assay: Inhibition of RNAi in human Hela cells expressing Renilla/firefly luciferase genes and siRNA assessed as siRNA-mediated gene silencing activity at 100 to 500 nM by dual luciferase assay relative to control; format: cell-based; conditions: dose 100-500 nM
[2] = target: T1, Protein argonaute-2 (Homo sapiens, UniProt Q9UKV8); assay: Binding affinity to human Argonaut protein 2 PAZ domain assessed as change in entropy by isothermal titration microcalorimetry
[3] = target: T1, Protein argonaute-2; assay: Binding affinity to human Argonaut protein 2 PAZ domain assessed as dissociation constant by using isothermal titration microcalorimetry
[4] = target: T1, Protein argonaute-2; assay: Binding affinity to human Argonaut protein 2 PAZ domain assessed as association constant by using isothermal titration microcalorimetry
[5] = tested on: HeLa; assay: Inhibition of RNAi in human Hela cells expressing Renilla/firefly luciferase genes and siRNA assessed as siRNA-mediated gene silencing activity at 500 nM by dual luciferase assay relative to control; format: cell-based
[6] = target: T1, Protein argonaute-2; assay: Binding affinity to human Argonaut protein 2 PAZ domain assessed as change in enthalpy by isothermal titration microcalorimetry

T1 sequence (Q9UKV8 whole entry, the tested form may be a part): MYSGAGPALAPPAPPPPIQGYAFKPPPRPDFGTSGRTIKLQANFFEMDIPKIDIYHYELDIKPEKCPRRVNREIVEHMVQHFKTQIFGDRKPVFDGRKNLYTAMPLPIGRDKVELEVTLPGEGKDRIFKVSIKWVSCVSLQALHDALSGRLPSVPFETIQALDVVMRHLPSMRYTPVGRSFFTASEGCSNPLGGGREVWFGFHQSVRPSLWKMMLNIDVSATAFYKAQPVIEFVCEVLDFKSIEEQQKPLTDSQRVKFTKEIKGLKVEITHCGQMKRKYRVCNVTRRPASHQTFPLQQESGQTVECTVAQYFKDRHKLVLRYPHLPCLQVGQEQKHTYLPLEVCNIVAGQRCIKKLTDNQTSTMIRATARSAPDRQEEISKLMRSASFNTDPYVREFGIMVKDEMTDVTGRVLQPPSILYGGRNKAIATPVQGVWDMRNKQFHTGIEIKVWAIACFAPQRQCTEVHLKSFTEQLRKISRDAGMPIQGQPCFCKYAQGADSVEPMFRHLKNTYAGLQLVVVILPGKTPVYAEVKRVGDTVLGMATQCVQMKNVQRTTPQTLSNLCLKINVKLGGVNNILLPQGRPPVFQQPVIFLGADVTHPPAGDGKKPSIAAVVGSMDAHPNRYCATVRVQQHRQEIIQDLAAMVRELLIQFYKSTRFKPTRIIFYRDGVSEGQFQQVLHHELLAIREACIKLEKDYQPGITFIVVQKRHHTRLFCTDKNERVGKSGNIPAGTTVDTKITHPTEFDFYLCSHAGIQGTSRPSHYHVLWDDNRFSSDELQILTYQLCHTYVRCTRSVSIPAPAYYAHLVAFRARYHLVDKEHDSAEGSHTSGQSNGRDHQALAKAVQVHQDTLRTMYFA

| Structure (SMILES) | inhibition [1] | deltaS [2] [cal/mol.K] | pKd [3] | Ka [4] | inhibition [5] | deltaH [6] [kcal/mol] |
| --- | --- | --- | --- | --- | --- | --- |
| Nc1ccc(S(N)(=O)=O)cc1 | inactive | 15.7 |  |  |  |  |
| Cc1cc(NS(=O)(=O)c2ccc(N)cc2)nc(C)n1 [SULFISOMIDINE] | Dose-dependent effect | 19.2 | 5.37 | 23 10^4/M | Active | -1.5 |
| N=C(N)NS(=O)(=O)c1ccc(N)cc1 | inactive | 15.6 |  | 2 10^4/M |  | -1.5 |
| [H]/N=C(/N)NS(=O)(=O)c1ccc(N)cc1 [SULFAGUANIDINE] |  |  | 4.31 |  |  |  |
| O=c1ccn([C@@H]2O[C@H](COP(=O)(O)O)[C@@H](O)[C@H]2O)c(=O)[nH]1 |  | 18.2 |  | 6.6 10^4/M |  | -0.9 |
